Laboratory results as given in patent US10493070B2 (priority 2016, dated 2019).

What follows are molecules tested on recombinant NL4-3 virus (NLRluc, Renilla luciferase in nef, Gag P373S) (assay: HIV cell culture assay (Renilla luciferase reporter virus in MT-2 cells)). Conditions: Renilla, NL43, read-out: 10% FBS EC50, 10% FBS, class symbols A/B/C.
Type: cell-based
How it was run: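 MT-2 cells infected with NL4-3 reporter virus (Renilla luciferase replacing part of nef, Gag P373S), made by 293T transfection and titered in MT-2 cells by luciferase. Infection runs 4–5 days with serial inhibitor dilutions. Antiviral activity read as Renilla luciferase activity (Dual Luciferase reagents).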
`CC1(C)C(c2ccc(C(=O)O)cc2)=CC[C@]2(C)CN(C(=O)c3ccccc3-c3nc4cc(Cl)ccc4o3)CC=C12` [Example A332] gave an EC50 of under 500 nM. In the case of `CC1(C)C(c2ccc(C(=O)O)cc2)=CC[C@]2(C)CN(C(=O)c3ccccc3-c3nc4ccccc4n3CCN3CCS(=O)(=O)CC3)CC=C12` [Example 81], the EC50 is reported as 500 to 3000 nM. Work on `CC1(C)C(c2ccc(C(=O)O)cc2)=CC[C@]2(C)CN(C(=O)c3ccc(C(=O)NCCCN4CCS(=O)(=O)CC4)s3)CC=C12` [Example 72] yielded an EC50 of over 3000 nM. `CN(C)c1ccccc1C(=O)N1CC=C2C(C)(C)C(c3ccc(C(=O)O)cc3)=CC[C@]2(C)C1` [Example 23] gave an EC50 of over 3000 nM. `CC1(C)C(c2ccc(C(=O)O)cc2)=CC[C@]2(C)CN(C(=O)c3ccc(CN)cc3)CC=C12` [Example 53] showed an EC50 of over 3000 nM. In the case of `CC1(C)C(c2ccc(C(=O)O)cc2)=CC[C@]2(C)CN(C(=O)c3ccccc3-c3nc4ccc(Cl)cc4o3)CC=C12` [Example A318], the EC50 is reported as under 500 nM. `CC1(C)C(c2ccc(C(=O)O)cc2)=CC[C@]2(C)CN(C(=O)c3cncc(C(=O)NCCCN4CCS(=O)(=O)CC4)c3)CC=C12` [Example 71] gave an EC50 of over 3000 nM. `CN1CCN(c2cccc(C(=O)N3CC=C4C(C)(C)C(c5ccc(C(=O)O)cc5)=CC[C@]4(C)C3)c2)CC1` [Example 29] showed an EC50 of over 3000 nM. With `CC1(C)C(c2ccc(C(=O)O)cc2)=CC[C@]2(C)CN(C(=O)c3ccc4[nH]nnc4c3)CC=C12` [Example 42] the EC50 was over 3000 nM. Work on `CC1(C)C(c2ccc(C(=O)O)cc2)=CC[C@]2(C)CN(C(=O)C(=O)N3CCC[C@H]3C(=O)NCCN3CCS(=O)(=O)CC3)CC[C@@H]12` [Example C1, 4-((4aS,8aS)-2-(2-((S)-2-((2-(1,1-dioxidothiomorpholino)ethyl)carbamoyl)pyrrolidin-1-yl)-2-oxoacetyl)-5,5,8a-trimethyl-1,2,3,4,4a,5,8,8a-octahydroisoquinolin-6-yl)benzoic acid] yielded an EC50 of over 3000 nM. `CC1(C)C(c2ccc(C(=O)O)cc2)=CC[C@]2(C)CN(C(=O)C3(c4ccccc4F)CCCC3)CC=C12` [Example A1] was tested, and the EC50 was over 3000 nM. With `CC1(C)C(c2ccc(C(=O)O)cc2)=CC[C@]2(C)CN(C(=O)c3ccc4[nH]cnc4c3)CC=C12` [Example 40] the EC50 was over 3000 nM. Work on `CC1(C)C(c2ccc(C(=O)O)cc2)=CC[C@]2(C)CN(c3ccc(-c4nnn(CCN5CCS(=O)(=O)CC5)n4)cc3)CC=C12` [Example B5] yielded an EC50 of over 3000 nM. In the case of `CC1(C)C(c2ccc(C(=O)O)cc2)=CC[C@]2(C)CN(C(=O)c3cccc(C(=O)O)c3)CC=C12` [Example 12], the EC50 is reported as over 3000 nM. `CC1(C)C(c2ccc(C(=O)O)cc2)=CC[C@]2(C)CN(C(=O)c3cscc3C(=O)NCCCN3CCS(=O)(=O)CC3)CC=C12` [Example 73] was tested, and the EC50 was over 3000 nM. `COCCn1c(-c2ccccc2C(=O)N2CC=C3C(C)(C)C(c4ccc(C(=O)O)cc4)=CC[C@]3(C)C2)nc2cc(C(=O)O)ccc21` [Example A296] gave an EC50 of over 3000 nM. `CC1(C)C(c2ccc(C(=O)O)cc2)=CC[C@]2(C)CN(C(=O)c3ccccc3-c3nc4c(F)cccc4[nH]3)CC=C12` [Example A266] was tested, and the EC50 was under 500 nM. `CC1(C)C(c2ccc(C(=O)O)cc2)=CC[C@]2(C)CN(C(=O)C3(c4ccc(F)cc4)CCCC3)CC=C12` [Example A111] gave an EC50 of over 3000 nM. With `CC1(C)C(c2ccc(C(=O)O)cc2)=CC[C@]2(C)CN(C(=O)CCN3CCS(=O)(=O)CC3)CC=C12` [Example 36] the EC50 was over 3000 nM. In the case of `CC1(C)C(c2ccc(C(=O)O)cc2)=CC[C@]2(C)CN(c3ccc(C(N)=O)cc3)CC=C12` [Example B17], the EC50 is reported as over 3000 nM. Work on `Cc1cc(Cl)cc2[nH]c(-c3ccccc3C(=O)N3CC=C4C(C)(C)C(c5ccc(C(=O)O)cc5)=CC[C@]4(C)C3)nc12` [Example A271] yielded an EC50 of under 500 nM. In the case of `Cc1ccc2nc(-c3ccccc3C(=O)N3CC=C4C(C)(C)C(c5ccc(C(=O)O)cc5)=CC[C@]4(C)C3)[nH]c2c1C` [Example 98], the EC50 is reported as under 500 nM.

Same assay, conditions: Renilla, NL43, read-out: 10% FBS EC50, 10% FBS, numeric values
`CC1(C)C(c2ccc(C(=O)O)cc2)=CC[C@]2(C)CN(C(=O)c3ccccc3-c3nc4c(Cl)cc(Cl)cc4[nH]3)CC=C12` [Example A268] was tested, and the EC50 was 14 nM. Work on `CC1(C)C(c2ccc(C(=O)O)cc2)=CC[C@]2(C)CN(C(=O)c3c(-c4ccccc4)nc4ccccn34)CC=C12` [Example A91] yielded an EC50 of 711 nM. Molecule `CC(C)(C)OC(=O)N[C@H](C(=O)N1CCC(C(=O)N2CC=C3C(C)(C)C(c4ccc(C(=O)O)cc4)=CC[C@]3(C)C2)(c2ccccc2)CC1)C(C)(C)C` [Example A219] has an EC50 of 150 nM. Work on `CC1(C)C(c2ccc(C(=O)O)cc2)=CC[C@]2(C)CN(C(=O)c3ccccc3-c3nc4ccccc4o3)CC=C12` [Example A325] yielded an EC50 of 235 nM. In the case of `CC(C)C[C@H](NC(=O)OC(C)(C)C)C(=O)N1CCC(C(=O)N2CC[C@H]3C(C)(C)[C@@H](c4ccc(C(=O)O)cc4)CC[C@]3(C)C2)(c2ccccc2)CC1` [Example 87], the EC50 is reported as 101 nM. For `CC1(C)C(c2ccc(C(=O)O)cc2)=CC[C@]2(C)CN(c3nc(C(=O)O)cs3)CC=C12` [Example B16], the EC50 was 1480 nM. In the case of `CC(C)[C@H]1CC[C@H](C)C[C@@H]1OC(=O)c1ccccc1C(=O)N1CC=C2C(C)(C)C(c3ccc(C(=O)O)cc3)=CC[C@]2(C)C1` [Example A36], the EC50 is reported as 380 nM. `CC1(C)C(c2ccc(C(=O)O)cc2)=CC[C@]2(C)CN(C(=O)c3ccccc3-c3nc4cc(C(=O)c5ccccc5)ccc4[nH]3)CC=C12` [Example A281] gave an EC50 of 950 nM. `CC(C)C[C@@H](NC(=O)OC(C)(C)C)C(=O)N1CCC(C(=O)N2CC=C3C(C)(C)C(c4ccc(C(=O)O)cc4)=CC[C@]3(C)C2)(c2ccccc2)CC1` [Example 92, 4-((S)-2-(1-((tert-butoxycarbonyl)-D-leucyl)-4-phenylpiperidine-4-carbonyl)-5,5,8a-trimethyl-1,2,3,5,8,8a-hexahydroisoquinolin-6-yl)benzoic acid] gave an EC50 of 8 nM. `CC1(C)C(c2ccc(C(=O)O)cc2)=CC[C@]2(C)CN(c3ccccc3-c3nnn(CCN4CCS(=O)(=O)CC4)n3)CC=C12` [Example B6] was tested, and the EC50 was 45 nM. `CC1(C)C(c2ccc(C(=O)O)cc2)=CC[C@]2(C)CN(C(=O)c3ccccc3-c3nc4cc(Cl)c(Cl)cc4n3CCc3ccccc3)CC=C12` [Example A277] showed an EC50 of 2250 nM. Work on `CC(C)C1(C(=O)N2CC=C3C(C)(C)C(c4ccc(C(=O)O)cc4)=CC[C@]3(C)C2)CCN(C(=O)OC(C)(C)C)CC1` [Example 49] yielded an EC50 of 1180 nM. Molecule `CN1CCN(c2ccc(C(=O)N3CC=C4C(C)(C)C(c5ccc(C(=O)O)cc5)=CC[C@]4(C)C3)cc2)CC1` [Example 30] has an EC50 of 2270 nM.
